Experimental data: ChEMBL document CHEMBL5291721, “A preclinical secondary pharmacology resource illuminates target-adverse drug reaction associations of marketed drugs” (Nat Commun, 2023)

Legend:
[1] = molecular target: T1, Muscarinic acetylcholine receptor M1 (Homo sapiens, UniProt P11229); assay type: functional, cell-based
T1 sequence (P11229 whole entry): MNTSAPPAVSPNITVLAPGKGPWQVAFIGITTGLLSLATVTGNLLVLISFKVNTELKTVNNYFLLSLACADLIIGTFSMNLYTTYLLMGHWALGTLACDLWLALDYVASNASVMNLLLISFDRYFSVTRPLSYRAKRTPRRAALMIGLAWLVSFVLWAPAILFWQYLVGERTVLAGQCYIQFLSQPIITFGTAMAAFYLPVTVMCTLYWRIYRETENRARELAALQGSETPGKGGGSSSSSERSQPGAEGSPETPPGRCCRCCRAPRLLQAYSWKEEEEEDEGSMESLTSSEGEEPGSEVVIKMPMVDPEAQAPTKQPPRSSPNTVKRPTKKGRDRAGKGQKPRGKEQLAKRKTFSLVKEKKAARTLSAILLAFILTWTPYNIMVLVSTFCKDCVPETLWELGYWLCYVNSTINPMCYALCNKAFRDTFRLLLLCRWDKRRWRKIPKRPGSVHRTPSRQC

[2] = molecular target: Gamma-aminobutyric acid receptor subunit alpha-1 (Rattus norvegicus, UniProt P62813); assay type: functional
Chain of Gamma-aminobutyric acid receptor subunit alpha-1 (P62813 whole entry): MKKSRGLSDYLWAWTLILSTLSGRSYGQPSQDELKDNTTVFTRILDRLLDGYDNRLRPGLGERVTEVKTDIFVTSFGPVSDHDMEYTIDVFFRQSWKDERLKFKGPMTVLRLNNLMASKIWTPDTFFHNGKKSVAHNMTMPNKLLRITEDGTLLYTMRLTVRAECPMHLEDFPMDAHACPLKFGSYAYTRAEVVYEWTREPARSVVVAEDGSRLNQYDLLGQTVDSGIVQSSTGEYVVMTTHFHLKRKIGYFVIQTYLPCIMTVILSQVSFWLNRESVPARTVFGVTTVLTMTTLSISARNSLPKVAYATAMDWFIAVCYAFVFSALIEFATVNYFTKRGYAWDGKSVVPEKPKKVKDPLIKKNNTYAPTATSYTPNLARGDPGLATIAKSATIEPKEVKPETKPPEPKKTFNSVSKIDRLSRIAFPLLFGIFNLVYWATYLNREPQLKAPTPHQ

Androgen receptor = molecular target: T2, Androgen receptor (Homo sapiens, UniProt P10275)
T2 sequence (P10275 whole entry): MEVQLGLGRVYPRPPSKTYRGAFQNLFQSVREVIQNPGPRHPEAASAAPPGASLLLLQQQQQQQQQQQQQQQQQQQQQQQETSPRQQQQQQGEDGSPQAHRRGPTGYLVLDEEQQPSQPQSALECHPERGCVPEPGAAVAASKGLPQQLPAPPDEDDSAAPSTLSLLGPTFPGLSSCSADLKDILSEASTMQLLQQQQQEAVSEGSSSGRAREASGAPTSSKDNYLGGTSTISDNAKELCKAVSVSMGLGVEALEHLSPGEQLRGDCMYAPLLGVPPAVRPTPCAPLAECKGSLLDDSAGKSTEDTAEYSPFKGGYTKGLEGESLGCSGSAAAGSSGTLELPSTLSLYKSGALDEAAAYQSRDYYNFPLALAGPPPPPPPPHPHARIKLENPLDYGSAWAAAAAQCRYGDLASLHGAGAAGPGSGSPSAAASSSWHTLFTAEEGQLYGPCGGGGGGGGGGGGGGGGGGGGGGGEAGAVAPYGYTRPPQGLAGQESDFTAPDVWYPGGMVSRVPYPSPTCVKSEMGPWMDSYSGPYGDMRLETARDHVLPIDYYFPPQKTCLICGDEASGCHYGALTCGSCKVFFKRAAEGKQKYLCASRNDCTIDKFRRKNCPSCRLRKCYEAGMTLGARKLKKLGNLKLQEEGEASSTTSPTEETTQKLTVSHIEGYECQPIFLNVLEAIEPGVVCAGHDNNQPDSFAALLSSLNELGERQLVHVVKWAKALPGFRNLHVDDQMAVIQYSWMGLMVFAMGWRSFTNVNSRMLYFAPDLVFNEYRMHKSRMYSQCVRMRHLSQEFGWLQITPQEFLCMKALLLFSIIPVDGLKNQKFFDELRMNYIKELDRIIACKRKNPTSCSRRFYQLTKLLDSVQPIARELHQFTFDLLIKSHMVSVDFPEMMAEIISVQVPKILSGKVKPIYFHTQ

[3] = molecular target: Neuronal acetylcholine receptor subunit alpha-4 (Homo sapiens, UniProt P43681)
Chain of Neuronal acetylcholine receptor subunit alpha-4 (P43681 whole entry): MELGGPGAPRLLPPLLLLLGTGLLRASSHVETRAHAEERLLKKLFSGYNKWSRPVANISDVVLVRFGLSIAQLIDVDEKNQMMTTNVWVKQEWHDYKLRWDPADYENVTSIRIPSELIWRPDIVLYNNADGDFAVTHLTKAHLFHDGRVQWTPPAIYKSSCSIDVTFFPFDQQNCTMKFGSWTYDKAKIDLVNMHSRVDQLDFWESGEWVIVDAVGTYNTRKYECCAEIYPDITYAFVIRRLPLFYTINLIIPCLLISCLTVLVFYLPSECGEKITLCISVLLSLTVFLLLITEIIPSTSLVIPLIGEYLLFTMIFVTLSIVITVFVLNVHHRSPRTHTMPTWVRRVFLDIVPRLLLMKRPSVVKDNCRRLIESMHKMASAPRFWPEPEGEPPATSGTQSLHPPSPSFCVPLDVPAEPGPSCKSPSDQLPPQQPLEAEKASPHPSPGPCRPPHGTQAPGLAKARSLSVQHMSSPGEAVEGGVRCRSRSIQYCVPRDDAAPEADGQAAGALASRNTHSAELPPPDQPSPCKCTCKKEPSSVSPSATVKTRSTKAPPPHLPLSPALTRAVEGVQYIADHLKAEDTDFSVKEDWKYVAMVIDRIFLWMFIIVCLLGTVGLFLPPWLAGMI

[4] = molecular target: T3, Prostaglandin G/H synthase 1 (Rattus norvegicus, UniProt Q63921); assay type: functional
T3 sequence (Q63921 whole entry): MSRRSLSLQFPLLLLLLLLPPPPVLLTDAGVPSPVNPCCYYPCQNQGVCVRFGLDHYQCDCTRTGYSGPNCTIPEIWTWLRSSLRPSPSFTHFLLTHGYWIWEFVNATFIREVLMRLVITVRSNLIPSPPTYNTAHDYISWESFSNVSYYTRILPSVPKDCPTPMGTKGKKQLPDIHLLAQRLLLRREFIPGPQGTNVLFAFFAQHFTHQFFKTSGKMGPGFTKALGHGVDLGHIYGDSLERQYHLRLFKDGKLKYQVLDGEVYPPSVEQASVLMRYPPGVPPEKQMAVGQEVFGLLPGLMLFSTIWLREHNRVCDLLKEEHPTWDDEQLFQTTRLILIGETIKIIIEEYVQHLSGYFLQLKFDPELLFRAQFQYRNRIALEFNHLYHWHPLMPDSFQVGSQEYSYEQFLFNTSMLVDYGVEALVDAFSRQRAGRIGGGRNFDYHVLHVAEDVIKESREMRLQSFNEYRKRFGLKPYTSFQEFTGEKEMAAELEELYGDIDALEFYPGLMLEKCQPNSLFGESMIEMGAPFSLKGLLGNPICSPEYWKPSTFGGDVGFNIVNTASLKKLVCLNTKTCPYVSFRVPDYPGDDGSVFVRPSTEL

Melanocortin receptor 3 = Melanocortin receptor 3 (Homo sapiens, UniProt P41968)
Chain of Melanocortin receptor 3 (P41968 whole entry): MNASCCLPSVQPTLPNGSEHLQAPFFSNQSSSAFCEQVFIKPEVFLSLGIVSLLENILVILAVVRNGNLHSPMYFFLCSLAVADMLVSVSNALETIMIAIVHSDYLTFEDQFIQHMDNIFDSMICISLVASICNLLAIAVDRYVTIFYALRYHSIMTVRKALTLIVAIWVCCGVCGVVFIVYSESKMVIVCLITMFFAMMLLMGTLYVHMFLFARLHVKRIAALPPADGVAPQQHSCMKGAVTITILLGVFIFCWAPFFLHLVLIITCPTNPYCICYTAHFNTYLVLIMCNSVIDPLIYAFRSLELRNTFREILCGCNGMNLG

[5] = molecular target: Sodium-dependent dopamine transporter (Homo sapiens, UniProt Q01959)
Chain of Sodium-dependent dopamine transporter (Q01959 whole entry): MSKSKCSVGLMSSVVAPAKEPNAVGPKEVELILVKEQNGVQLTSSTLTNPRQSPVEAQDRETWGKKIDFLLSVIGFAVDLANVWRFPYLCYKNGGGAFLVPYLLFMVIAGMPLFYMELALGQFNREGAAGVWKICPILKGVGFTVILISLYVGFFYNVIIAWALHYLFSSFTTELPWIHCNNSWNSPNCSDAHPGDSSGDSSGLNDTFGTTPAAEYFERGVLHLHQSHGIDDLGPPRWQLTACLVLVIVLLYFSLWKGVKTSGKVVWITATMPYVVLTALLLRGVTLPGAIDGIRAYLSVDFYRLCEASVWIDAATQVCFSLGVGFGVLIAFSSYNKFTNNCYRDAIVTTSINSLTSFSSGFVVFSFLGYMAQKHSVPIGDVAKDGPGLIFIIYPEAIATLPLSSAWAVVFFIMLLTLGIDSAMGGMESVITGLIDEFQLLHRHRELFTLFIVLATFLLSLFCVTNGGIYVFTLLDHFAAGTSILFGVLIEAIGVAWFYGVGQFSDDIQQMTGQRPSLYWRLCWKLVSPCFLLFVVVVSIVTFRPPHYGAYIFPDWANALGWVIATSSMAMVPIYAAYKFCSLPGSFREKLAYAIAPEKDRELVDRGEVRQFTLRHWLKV

[6] = molecular target: T4, 5-hydroxytryptamine receptor 2C (Homo sapiens, UniProt P28335)
T4 sequence (P28335 whole entry): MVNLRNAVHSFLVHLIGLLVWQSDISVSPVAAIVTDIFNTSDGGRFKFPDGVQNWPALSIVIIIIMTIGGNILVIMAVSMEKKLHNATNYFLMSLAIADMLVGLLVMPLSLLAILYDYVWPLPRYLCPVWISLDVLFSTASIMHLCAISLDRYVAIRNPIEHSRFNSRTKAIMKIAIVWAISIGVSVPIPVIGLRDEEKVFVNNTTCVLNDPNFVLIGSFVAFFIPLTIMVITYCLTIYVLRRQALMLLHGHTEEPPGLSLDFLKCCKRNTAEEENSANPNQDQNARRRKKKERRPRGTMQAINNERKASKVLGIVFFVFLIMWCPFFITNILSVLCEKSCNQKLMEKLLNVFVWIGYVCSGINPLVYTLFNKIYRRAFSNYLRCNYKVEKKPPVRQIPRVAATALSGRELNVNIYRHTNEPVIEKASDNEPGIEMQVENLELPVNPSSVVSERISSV

[7] = molecular target: Delta-type opioid receptor (Homo sapiens, UniProt P41143)
Chain of Delta-type opioid receptor (P41143 whole entry): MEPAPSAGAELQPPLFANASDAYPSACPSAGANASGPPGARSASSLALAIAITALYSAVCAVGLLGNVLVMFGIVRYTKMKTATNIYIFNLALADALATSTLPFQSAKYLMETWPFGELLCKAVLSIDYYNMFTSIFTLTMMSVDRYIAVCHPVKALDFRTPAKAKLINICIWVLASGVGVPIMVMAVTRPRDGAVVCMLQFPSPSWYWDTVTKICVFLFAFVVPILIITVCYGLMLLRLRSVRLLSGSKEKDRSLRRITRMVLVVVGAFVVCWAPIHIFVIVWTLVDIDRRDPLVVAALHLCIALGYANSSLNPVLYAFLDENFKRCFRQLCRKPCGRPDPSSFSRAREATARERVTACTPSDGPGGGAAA
Note: assay procedure not described here.

SMILES	AC50 [1] [µM]	AC50 (Androgen receptor) [µM]	also measured
C[C@]1(COc2ccc(N3CCC(Oc4ccc(OC(F)(F)F)cc4)CC3)cc2)Cn2cc([N+](=O)[O-])nc2O1	> 30	> 30	AC50 [2]: > 10 µM; AC50 [3]: > 10 µM; AC50 [4]: > 30 µM; AC50 (Melanocortin receptor 3): > 30 µM; AC50 [5]: > 10 µM; AC50 [6]: > 30 µM; AC50 [7]: > 30 µM
CO[C@H]1[C@@H](O)C[C@H](O[C@H]2[C@@H](O)C[C@H](O[C@H]3[C@@H](O)C[C@H](O[C@H]4CC[C@@]5(C)[C@H](CC[C@@H]6[C@@H]5C[C@@H](O)[C@]5(C)[C@@H](C7=CC(=O)OC7)CC[C@]65O)C4)O[C@@H]3C)O[C@@H]2C)O[C@@H]1C [METILDIGOXIN]	> 30	> 30	–
Cc1nnc(SCC2=C(C(=O)O)N3C(=O)[C@@H](NC(=O)Cn4cc(Cl)c(=O)c(Cl)c4)[C@H]3SC2)s1 [CEFAZEDONE]	> 30	> 30	–
Nc1nc(N)nc(Nc2ccc([As]3SCC(CO)S3)cc2)n1 (stereo unspecified) [MELARSOPROL]	> 30	> 30	–
CC(=O)O[C@H]1C[C@H](O[C@H]2[C@@H](O)C[C@H](O[C@H]3[C@@H](O)C[C@H](O[C@H]4CC[C@@]5(C)[C@H](CC[C@@H]6[C@@H]5C[C@@H](O)[C@]5(C)[C@@H](C7=CC(=O)OC7)CC[C@]65O)C4)O[C@@H]3C)O[C@@H]2C)O[C@H](C)[C@H]1O[C@@H]1O[C@H](CO)[C@@H](O)[C@H](O)[C@H]1O [LANATOSIDE C]	> 30	> 30	–
CC(=O)OC(C)OC(=O)C(C)c1ccc(-c2ccccc2)c(F)c1 (stereo unspecified)	> 30	> 30	–
CC1(C)S[C@@H]2[C@H](NC(=O)[C@H](NC(=O)N3CCN(S(C)(=O)=O)C3=O)c3ccccc3)C(=O)N2[C@H]1C(=O)O [MEZLOCILLIN]	> 30	> 30	–
